Read-outs that look alike come from different tables or passages of the source.
Legend:
[1] = tested on: PAM-212 murine keratinocyte cell line; assay: Anti-psoriatic activity by inhibition of keratinocyte proliferation (PAM-212, SRB); format: cell-based, murine (BALB/c mice); conditions: for minimal effective concentration: Mus musculus, PAM212, PAM-212, 72 hours, FIG. 2, read-out: concentration at which marked inhibition of cell growth is seen; for inhibition of keratinocyte proliferation (in words): in vitro
Experimental: Assay for Anti-psoriatic Activity by Inhibition of Keratinocyte Proliferation:
1. Cell line: PAM-212 murine keratinocyte cell line isolated and cultivated from newborn BALB/c mice (see S. H. Yuspa et al., Cancer Research, 40, 4694-4703, December, 1980) that appears to retain many characteristics of normal keratinocytes.
2. Culture medium: 1:1 DMEM and Ham's F-12 with 10% FBS.
3. Standard protocol for culturing cell lines; in T-75 or T-150 flasks; 37° C.; 95% air, 5% CO2; 100% humidity. Cell line PAM-212 is passaged when approximately 80% confluent; with trypsin (1 mg/mL) and EDTA (1 mM EDTA in Ca-Mg free Hank's balanced salt solution); at a 1:4 to 1:5 split.
a. All procedures are performed aseptically in a Class II biological safety cabinet using standard BL-2 containment procedures. At approximately monthly intervals, fresh cells are thawed from liquid nitrogen storage in order to prevent genetic drift in stock cell lines.
After cell passage, count cells with a hemacytometer;
a. Adjust concentration to approximately 1,000 cells per 100 μL;
b. Pipette 100 μL cell suspension per well of a standard 96-well microtiter plate;
c. Preincubate 24 hours to allow cells to attach;
d. Add test compound dispersed in phosphate buffered saline (PBS), or in DMSO for the comparative compound, retinoic acid, to achieve final concentration levels ranging from 0 to 100 μM;
e. Adjust volume to 200 μL/well by adding DMEM/F12; and
f. Incubate 72 hours under standard culture conditions and determine end points.
Remove media and add 100 μL/well of cold (4° C.) 10% (w/v) trichloroacetic acid (TCA) in water;
a. After 1 hour at 4° C., remove TCA and rinse cells 5 times with tap water;
c. Add 50 μL/well of 0.4% (w/v) sulforhodamine B (SRB) in 1% (v/v) acetic acid in water;
d. After 30 minutes at room temperature, rinse cells 4 times with 1% (v/v) acetic acid in water to remove residual stain;
f. Dissolve stain by adding 100 μL/well of unbuffered Tris base, pH 10.5;
g. Read absorbance at 562 nm using a standard 96-well microtiter plate reader. Absorbance readings are linear with dye concentrations below 1.8 absorbance units. To reduce absorbance, decrease wavelength at which measurements are taken.
single point reading; the higher the absorbance, the higher the cell number;
a. background-no cell and no test compound present in culture medium;
b. control-no test compound present in culture medium;
c. initial control cell number (ICCN)-no test compound present in culture medium, end point determined at the time of treatment;
d. final control cell number (FCCN)-no test compound present in culture medium, end point determined at 72 hours after treatment;
e. final cell number (FCN)-test compound present in culture medium, end point determined at 72 hours after treatment;
ICCN=A(control, zero hour)-A(background) […]

[2] = tested on: human tumor cell line HL-60; assay: HL-60 cell viability (trypan blue exclusion); format: cell-based; conditions: for cell viability (in words): HL-60, compared to retinoic acid; for viability at 10 µM / viability at 30 µM / viability at 100 µM: Homo sapiens
Experimental: (§1) Use of the HL-60 cell line in evaluating the anti-tumor activity of retinoids is reported in the literature, for example, see Janick-Buckner, D. et al.,FASEB J. 5:320-325; 1991
(§2) 1. Human tumor cell line HL-60 (ATCC CCL 240), obtainable from the American Type Culture Collection (ATCC), a promyelocytic leukemia cell line.
(§3) 2. Culture media: Roswell Park Memorial Institute-1640 (RPMI-1640) plus 10% Fetal Bovine Serum (FBS).
(§4) 3. Standard protocol for culturing cell lines: in T-75 or T-150 flasks; 37° C.; 95% air, 5% CO2; 100% humidity.
(§5) a. The HL 60 cell line is passaged by removing approximately 75% of the media and cell mixture and adding an equal amount of fresh media once or twice a week.
b. All procedures are performed aseptically in a Class II biological safety cabinet using standard BL-2 containment procedures. At approximately monthly intervals, fresh cells are thawed from liquid nitrogen storage in order to prevent genetic drift in stock cell lines.
a. after cell passage, count cells with a hemacytometer;
b. adjust concentration to approximately 20,000 cells per 100 μL;
C. pipette 100 μL cell suspension per well of a standard 96-well microtiter plate;
d. add test compound dissolved in phosphate buffered saline (PBS), or in DMSO for the comparative compound, retinoic acid, for final concentration levels ranging from 0 to 100 μM;
e. adjust volume to 200 μL/well by adding RPMI-1640;; and
f. incubate 72 hours under standard culture conditions and determine end points.
6. End Point 2: Cell Viability:
a. Add 100 μL/well of 0.5% (w/v) trypan blue in PBS.
b. Using a hemacytometer, determine the percent viable cells by calculating the ratio of cells that exclude trypan blue to the total number of cells.

[3] = tested on: RAW 264.7 murine monocyte/macrophage line; assay: Anti-inflammatory activity by inhibition of macrophage chemiluminescence (respiratory burst, PMA-stimulated, luminol); format: cell-based; conditions: for minimal effective concentration: PMA-stimulated RAW 264.7, read-out: concentration at which marked inhibition of luminescence is seen
From the text: Assay for Anti-inflammatory Activity by Inhibition of Macrophage Chemiluminescence
The RAW 264.7 cell line (available from the ATCC under accession no. TIB 71) is a murine monocyte/macrophage line the cells of which show many of the differentiative functions of a macrophage. Like macrophages, the cells are capable of phagocytosis and undergo an oxidative burst (increased oxygen consumption) and production of oxygen radicals (e.g., superoxide) in response to appropriate signals. Agents that inhibit the activation of these cells in vitro, so as to inhibit the respiratory burst and corresponding production of oxygen radicals associated with the activation, are therefore inhibitors of macrophage activation and critical steps in inflammatory processes. These agents are likely, then to be anti-inflammatories.
The respiratory burst and corresponding production of oxygen radicals that accompany macrophage activation can be measured in a variety of ways, including chemiluminescence based on the reaction of the oxygen radicals with luminol added to the culture medium (see M. A. Trush et al, 1978, "The Generation of Chemiluminescence by Phagocytic Cells." Methods in Enzymology 57: 462-494). Indeed, chemiluminescence generated from luminol in the culture medium of macrophage cell lines is recognized in the art as a marker of macrophage activation.
Cell line: RAW 264.7 (ATCC TIB 71);
1. Culture medium: DMEM with 5% FBS (attachment dependent);
2. Standard protocol for culturing cell lines: in T-75 or T-150 flasks; 37° C.; 95% air, 5% CO2; 100% humidity;
3. Cell lines are passaged when approximately 80% confluent; with trypsin (1 mg/mL) and EDTA ([…] in Ca-Mg free Hank's balanced salt solution); at a 1:4 to 1:5 split;
4. Trypsinize the cells and count with a hemacytometer;
5. Adjust concentration of cells to approximately 1,000,000 cells per mL;
6. Suspend cells in DMEM lacking phenol red and without FBS;
7. Pipette 1 mL into a standard luminometer cuvet (12×75), commercially obtainable from Analytical Luminescence Laboratories, San Diego;
8. Add luminol to final concentration of 1 μM;
9. Add test compound (0, 1, 3, 10, 30 μM);
10. Add 100 nanograms of phorbol myristate acetate (PMA);
11. Wait 1 minute and read photo counts (i.e., luminescence) on a Monolight 2010 luminometer available from Analytical Luminescence Laboratories;
The results are represented in Table 2, which illustrates the marked inhibition of luminescence by the compounds tested (CPR 2003 and CPR 2004) at concentrations above 3 μM. Results are calculated as percent of control (no test compound present).

[4] = tested on: human tumor cell line HL-60; assay: HL-60 cell proliferation (in vitro HL-60 cell inhibition assay, SRB); format: cell-based; conditions: particularly against leukemia
Experimental: as §1, §2, §3, §4, §5
b. […]
j. Read absorbance at 562 nm using a standard 96-well microtiter plate reader. Absorbance readings are linear with dye concentrations below 1.8 absorbance units. To reduce absorbance, decrease wavelength at which measurements are taken;
single point reading; the higher the absorbance, the higher the cell number; […]
initial control cell number (ICCN)-no test compound present in culture medium, end point determined at the time of treatment;
final control cell number (FCCN)-no test compound present in culture medium, end point determined at 72 hours after treatment;
final cell number (FCN)-test compound present in culture medium, end point determined at 72 hours after treatment; […]

[5] = R. Andreesen, Prog. Biochem. Pharmacol., 22, 118-131; cited from earlier work
[6] = Liposome formation in PBS; format: physicochemical; conditions: sonication
From the text: Solutions of the subject compounds of Formula (I) in PBS (phisphate-buffered saline) have characteristics indicative of the presence of liposomes. These preparations require sonication in order to form uniform, cloudy suspensions. The requirement for sonication and the cloudy appearance of the suspensions are some known properties of liposomal preparations. Additionally, foam generation, which is associated with micellar suspensions, is not a property of these preparations.

[7] = RAW264.7, PMA-stimulated mouse macrophages, 1 μM, read-out: % Inhibition of respiratory burst
[8] = RAW264.7, PMA-stimulated mouse macrophages, 3 μM, read-out: % Inhibition of respiratory burst
[9] = RAW264.7, PMA-stimulated mouse macrophages, 10 μM, read-out: % Inhibition of respiratory burst
[10] = RAW264.7, PMA-stimulated mouse macrophages, 30 μM, read-out: % Inhibition of respiratory burst
[11] = Mus musculus, RAW264.7, read-out: % Inhibition of respiratory burst

Row | SMILES | minimal effective concentration [1] [µM] | inhibition of keratinocyte proliferation (in words) [1] | cell viability (in words) [2] | viability at 10 µM ([2]; HL-60, 72 h) [%] | viability at 30 µM ([2]; HL-60, 72 h) [%] | viability at 100 µM ([2]; HL-60, 72 h) [%] | reduction of macrophage activation (in words) [3] | minimal effective concentration ([3]; Mus musculus, RAW264.7) [µM] | inhibition at 1 µM [3, 7] [%] | inhibition at 3 µM [3, 8] [%] | inhibition at 10 µM [3, 9] [%] | inhibition at 30 µM [3, 10] [%] | anti-tumor or anti-cancer activity (in words) [4] | further results
1 | CCCCCCCCCCCCCCCCCCOCC(COP(=O)([O-])OCC[N+](C)(C)C)OC(=O)/C=C(C)/C=C/C=C(C)/C=C/C1=C(C)CCCC1(C)C (stereo not drawn) [CPR 2003, 1-O-n-Octadecyl-2-(all-trans-retinoyl)-glycero-3-phosphocholine] | > 1 | markedly inhibit proliferation of these cells in vitro | relatively high cell viability | 97 | 93 | 97 | markedly reduce macrophage activation | > 3 | 19 | 40 | 81 | 99 | marked anti-tumor or anti-cancer activity | 
2 | CCCCCCCCCCCCCCCCCCOCC(COC(=O)/C=C(C)/C=C/C=C(C)/C=C/C1=C(C)CCCC1(C)C)OP(=O)([O-])OCC[N+](C)(C)C (stereo not drawn) [CPR 2004, 1-O-n-Octadecyl-3-(all-trans-retinoyl)-glycero-2-phosphocholine] | > 10 | markedly inhibit proliferation of these cells in vitro | relatively high cell viability | 92 | 94 | 59 | markedly reduce macrophage activation | > 3 | 14 | 55 | 93 | 99 | marked anti-tumor or anti-cancer activity | 
3 | CCCCCCCCCCCCCCCCCCOC[C@H](COP(=O)([O-])OCC[N+](C)(C)C)OC [ET 18-OCH3, 1-O-octadecyl-2-O-methyl-sn-glycero-3-phosphocholine] |  |  |  |  |  |  |  |  |  |  |  |  |  | anti-tumor activity (in words) [5]: markedly potent anti-tumor activity
4 | CC1=C(/C=C/C(C)=C/C=C/C(C)=C/C(=O)O)C(C)(C)CCC1 [Retinoic Acid, retinoic acid, reference compound] |  |  |  |  |  |  |  |  |  |  |  |  |  | viability at 10 µM ([2]; HL-60, 10 μM, 72 hours, read-out: % Viability): 87%; viability at 30 µM ([2]; HL-60, 30 μM, 72 hours, read-out: % Viability): 70%; viability at 100 µM ([2]; HL-60, 100 μM, 72 hours, read-out: % Viability): 0%; inhibition at 1 µM [3, 11]: 2%; inhibition at 3 µM [3, 11]: 6%; inhibition at 10 µM [3, 11]: 3%; inhibition at 30 µM [3, 11]: 6%; liposome formation (in words) [6]: unlike retinoic acid, the subject compounds are capable of forming liposomes

— US5827836A, “Retinoid glycerol phospholipid conjugates” (Clarion Pharmaceuticals Inc., priority 1996, dated 1998)
